Assay results published in article PMC4730278, “In Vivo Anti-Tumor Activity and Toxicological Evaluations of Perillaldehyde 8,9-Epoxide, a Derivative of Perillyl Alcohol” (International Journal of Molecular Sciences, 2016).

What was measured:
[1] = tested on: sarcoma 180 tumor cells (S-180); test: In vivo antitumor activity assay, sarcoma 180 tumor growth in mice; parameters: species or system Swiss mice; conditions: 7 consecutive days
Description: Sarcoma 180 (S-180) tumor cells, were obtained through at the Federal University of Ceará, Brazil and maintained in the abdominal cavities of Swiss mice in their ascitic form by ten days.
The effect on tumor growth in vivo was assessed using S-180 ascites tumor cells, according standard protocol. Ten-day-old S-180 ascites tumor cells (2 × 10^6 cells per 0.5 mL) were inoculated subcutaneously into the right axillary region of animals. After 24 h, the animals were separated into 5 groups (n = 10 mice/group) and subjected to intraperitoneal (i.p.) treatment for 7 consecutive days (once a day). Group 1 consisted of animals treated by intraperitoneal (i.p.) administration of negative control—5% Dimethyl sulfoxide (DMSO); Group 2 consisted of animals treated by i.p. administration of positive control—5-fluorouracil 25 mg/kg/day (5-FU; purity > 99%; Sigma Chemical Co., St. Louis, MO, USA); Group 3 consisted of animals treated by i.p. administration of perillaldehyde 8,9-epoxide at 100 mg/kg/day; Group 4 consisted of animals treated by i.p. administration of perillaldehyde 8,9-epoxide at 200 mg/kg/day; Group 5 consisted of animals treated by i.p. administration of perillyl alcohol at 100 mg/kg/day; Group 6 consisted of animals treated by i.p. administration of perillyl alcohol at 200 mg/kg/day. At 24 h from the last day of treatment, under 1.5% isoflurane inhalation anesthesia, the mice were euthanized, and the tumors were weighed. The inhibition ratio of tumor growth (%) was calculated by the following equation: (%) = [(NC − TG)/NC] × 100, where NC is the average tumor weight of the negative control group and TG is the average tumor weight of the treated group.

[2] = Body and organ weights, healthy mice; assay type: in vivo, Swiss mice; conditions: 7 days
Description: (§1) Body weights (n = 10 mice/group) were determined at the first and last days of treatment. Organ weight alterations (n = 10 mice/group), and hematological and biochemical analysis (n = 5 mice/group) were performed on the last day of experimentation. All systemic toxicological analyses were also performed with 4 healthy animal groups, without the inoculation of S-180, (n = 5 mice/group) treated with 5% DMSO (i.p.), 5-FU 25 mg/Kg/day (i.p.), perillaldehyde 8,9-epoxide 100 mg/kg/day (i.p.) and perillaldehyde 8,9-epoxide 200 mg/kg/day for consecutive 7 days.
(§2) Twenty four hours after the seventh treatment day, blood samples of the animals were collected (retro-orbital plexus) with anesthetized mice (1.5%, isoflurane). Immediately after blood collection the animals were euthanized, and their organs (liver, spleen and kidneys) were removed and weighed. The wet mass of each organ was expressed as grams per 100 grams of body mass and compared to the negative control group.

[3] = Biochemical parameters in blood, mice with S-180 tumor cells; assay type: in vivo, Swiss mice; conditions: 7 days; for ALT / AST / Creatinine / Urea: mice with S-180 tumor cells
Description: as §1, §2
(§3) For evaluation of the effect of perillaldehyde 8,9-epoxide on the biochemical parameters aspartate aminotransferase (AST) and alanine aminotransferase (ALT) enzymatic to investigate liver function alterations, creatinine and urea were measured as renal function parameters. For this test, blood samples of the animals were collected without anticoagulant, centrifuged for 10 min at 3500 rpm and 25 °C to obtain […].
(§4) The Clinical Chemistry® kits (Abbott Architect; C8000; Abbott Laboratories, Wiesbaden, Germany) were used for biochemical evaluation of serum samples.

[4] = Histopathological and macroscopic analyses of livers, kidneys and spleens; assay type: in vivo, Swiss mice
Description: After being weighed and fixed in 10% formaldehyde; tumors, livers, spleens, and kidneys were submitted for assessment macroscopic (size, coloration and hemorrhage), were cut into small pieces and, after that dehydrated in alcohol, diaphanized in xylene and paraffin-embedded. Subsequently, 5-µm-thick histological sections were obtained and stained with hematoxylin and eosin. Histological analyses were performed by light microscopy in order to assess possible damage caused by treatment.

[5] = Body and organ weights, mice transplanted with S-180 tumor cells; assay type: in vivo, Swiss mice; conditions: 7 days
Description: as §1, §2

[6] = Hematological parameters in blood, mice with S-180 tumor; assay type: in vivo, Swiss mice; conditions: 7 days; for Differential Count of Leukocytes, Eosinophil / Differential Count of Leukocytes, Lymphocyte / Differential Count of Leukocytes, Monocyte / Differential Count of Leukocytes, Neutrophil / Total Leukocytes: mice with S-180 tumor
Description: as §1, §2
(§5) For hematological analyses, an aliquot of blood from each animal was placed in ethylene diamine tetracetic acid (EDTA). Hematological parameters, including the total as well as differential counts of leukocytes, including eosinophils, lymphocytes, neutrophils and monocytes determined by standard manual procedures using optical light microscopy.

[7] = Biochemical parameters in blood, healthy mice; assay type: in vivo, Swiss mice; conditions: 7 days
Description: as §1, §2, §3, §4

[8] = Hematological parameters in blood, healthy mice; assay type: in vivo, Swiss mice; conditions: 7 days
Description: as §1, §2, §5

[9] = tested on: 4 cancer cell lines (colon carcinoma, ovarian adenocarcinoma, glioblastoma, and leukemia); parameters: method as in PMID 26197313; conditions: all of the 4 cell lines studied; cited from earlier work
[10] = tested on: three human tumor cell lines (ovarian adenocarcinoma, colon carcinoma, glioblastoma); parameters: method as in PMID 26197313; conditions: in vitro; cited from earlier work
[11] = mice with tumor S-180, 25 mg/kg/day i.p.
[12] = mice with tumor S-180, 100 mg/kg/day i.p.
[13] = mice with tumor S-180, 200 mg/kg/day i.p.

O=c1[nH]cc(F)c(=O)[nH]1 [5-FU, 5-fluorouracil, reference compound]
tumor growth inhibition rate ([1]; 25 mg/kg/day i.p.): 68.1% | mean tumor mass ([1]; 25 mg/kg/day i.p., 24 h after last treatment, NC 1.18 ± 0.07 g): 0.36 ± 0.02 g | Kidney ([2]; 25 mg/kg/day i.p.): 1.13 ± 0.03 g/100 g Body Mass | Liver ([2]; 25 mg/kg/day i.p.): 4.65 ± 0.21 g/100 g Body Mass | Spleen ([2]; 25 mg/kg/day i.p.): 0.19 ± 0.02 g/100 g Body Mass | Variation Body in Mass ([2]; 25 mg/kg/day i.p.): -3.50 ± 0.66 g | ALT ([3]; 25 mg/kg/day i.p.): 42.8 ± 0.6 U/L | AST ([3]; 25 mg/kg/day i.p.): 164.4 ± 10.0 U/L | Creatinine ([3]; 25 mg/kg/day i.p.): 0.28 ± 0.09 mg/dL | Urea ([3]; 25 mg/kg/day i.p.): 50.71 ± 2.18 mg/dL | macroscopic observation of the spleens ([4]; 25 mg/kg/day i.p., 7 days): Visible atrophy | Kidney [5, 11]: 1.15 ± 0.04 g/100 g Body Mass | Liver [5, 11]: 4.99 ± 0.16 g/100 g Body Mass | Spleen [5, 11]: 0.33 ± 0.02 g/100 g Body Mass | Variation Body in Mass [5, 11]: -4.46 ± 0.83 g | Differential Count of Leukocytes, Eosinophil ([6]; 25 mg/kg/day i.p.): 0% | Differential Count of Leukocytes, Lymphocyte ([6]; 25 mg/kg/day i.p.): 89.0 ± 0.70 % | Differential Count of Leukocytes, Monocyte ([6]; 25 mg/kg/day i.p.): 0.8 ± 0.37% | Differential Count of Leukocytes, Neutrophil ([6]; 25 mg/kg/day i.p.): 10.2 ± 0.54 % | Total Leukocytes ([6]; 25 mg/kg/day i.p.): 2.50 ± 0.32 ^# 10^3 Cells/µL | ALT ([7]; 25 mg/kg/day i.p.): 47.25 ± 2.8 U/L | AST ([7]; 25 mg/kg/day i.p.): 102.0 ± 15.06 U/L | Creatinine ([7]; 25 mg/kg/day i.p.): 0.37 ± 0.02 mg/dL | Urea ([7]; 25 mg/kg/day i.p.): 49.00 ± 5.86 mg/dL | Differential Count of Leukocytes, Eosinophil ([8]; 25 mg/kg/day i.p.): 0% | Differential Count of Leukocytes, Lymphocyte ([8]; 25 mg/kg/day i.p.): 95.8 ± 0.70 % | Differential Count of Leukocytes, Monocyte ([8]; 25 mg/kg/day i.p.): 1.2 ± 0.70% | Differential Count of Leukocytes, Neutrophil ([8]; 25 mg/kg/day i.p.): 3.0 ± 0.70 % | Total Leukocytes ([8]; 25 mg/kg/day i.p.): 2.37 ± 0.77 * 10^3 Cells/µL

C=C(C)[C@@H]1CC=C(CO)CC1 [perillyl alcohol, (S)-(−)-perillyl alcohol]
tumor growth inhibition rate ([1]; 100 mg/kg/day i.p.): 35.3% | tumor growth inhibition rate ([1]; 200 mg/kg/day i.p.): 45.4%

CC1([C@@H]2CC=C(C=O)CC2)CO1 (stereo partly shown) [perillaldehyde 8,9-epoxide]
tumor growth inhibition rate ([1]; 100 mg/kg/day i.p.): 38.4% | tumor growth inhibition rate ([1]; 200 mg/kg/day i.p.): 58.7% | Kidney ([2]; 100 mg/kg/day i.p.): 1.15 ± 0.06 g/100 g Body Mass | Liver ([2]; 100 mg/kg/day i.p.): 4.66 ± 0.09 g/100 g Body Mass | Spleen ([2]; 100 mg/kg/day i.p.): 0.25 ± 0.01 g/100 g Body Mass | Variation Body in Mass ([2]; 100 mg/kg/day i.p.): 0.90 ± 0.38 g | Kidney ([2]; 200 mg/kg/day i.p.): 1.17 ± 0.19 g/100 g Body Mass | Liver ([2]; 200 mg/kg/day i.p.): 5.07 ± 0.13 g/100 g Body Mass | Spleen ([2]; 200 mg/kg/day i.p.): 0.37 ± 0.06 g/100 g Body Mass | Variation Body in Mass ([2]; 200 mg/kg/day i.p.): -0.71 ± 0.53 g | changes in hepatic and renal parameters (AST, ALT, urea, creatinine; in words) ([3]; healthy and S-180 mice, at the doses tested (100 and 200 mg/kg/day i.p.)): does not cause changes in hepatic and renal parameters | ALT ([3]; 100 mg/kg/day i.p.): 35.0 ± 2.2 U/L | AST ([3]; 100 mg/kg/day i.p.): 178.0 ± 5.0 U/L | Creatinine ([3]; 100 mg/kg/day i.p.): 0.34 ± 0.01 mg/dL | Urea ([3]; 100 mg/kg/day i.p.): 43.0 ± 1.08 mg/dL | ALT ([3]; 200 mg/kg/day i.p.): 36.0 ± 3.5 U/L | AST ([3]; 200 mg/kg/day i.p.): 208.3 ± 20.6 U/L | Creatinine ([3]; 200 mg/kg/day i.p.): 0.33 ± 0.02 mg/dL | Urea ([3]; 200 mg/kg/day i.p.): 47.80 ± 2.01 mg/dL | Histopathological analyses of the liver, spleen, and kidneys (morphology) ([4]; light microscopy, hematoxylin-eosin, after 7 days i.p. treatment): free from any morphological changes | changes in body or organ masses (in words) ([5]; healthy and S-180 mice, 100 and 200 mg/kg/day i.p.): did not cause changes in body or organ masses | Kidney [5, 12]: 1.27 ± 0.03 g/100 g Body Mass | Liver [5, 12]: 4.84 ± 0.07 g/100 g Body Mass | Spleen [5, 12]: 0.52 ± 0.02 g/100 g Body Mass | Variation Body in Mass [5, 12]: 1.11 ± 0.19 g | Kidney [5, 13]: 1.28 ± 0.03 g/100 g Body Mass | Liver [5, 13]: 4.57 ± 0.09 g/100 g Body Mass | Spleen [5, 13]: 0.49 ± 0.04 g/100 g Body Mass | Variation Body in Mass [5, 13]: -1.58 ± 0.33 g | IC50 (median inhibitory concentration able to induce 50% of maximal effect) [9]: less than 4.0 µg/mL | effect on total leukocyte count (in words) ([6]; healthy mice and mice with S-180, at the doses tested (100 and 200 mg/kg/day i.p.)): caused leukopenia | Differential Count of Leukocytes, Eosinophil ([6]; 100 mg/kg/day i.p.): 0% | Differential Count of Leukocytes, Lymphocyte ([6]; 100 mg/kg/day i.p.): 73.2 ± 2.17 % | Differential Count of Leukocytes, Monocyte ([6]; 100 mg/kg/day i.p.): 0.6 ± 0.40% | Differential Count of Leukocytes, Neutrophil ([6]; 100 mg/kg/day i.p.): 26.2 ± 5.92 % | Total Leukocytes ([6]; 100 mg/kg/day i.p.): 5.30 ± 0.37 ^# 10^3 Cells/µL | Differential Count of Leukocytes, Eosinophil ([6]; 200 mg/kg/day i.p.): 0% | Differential Count of Leukocytes, Lymphocyte ([6]; 200 mg/kg/day i.p.): 80.6 ± 2.54 % | Differential Count of Leukocytes, Monocyte ([6]; 200 mg/kg/day i.p.): 0.8 ± 0.34% | Differential Count of Leukocytes, Neutrophil ([6]; 200 mg/kg/day i.p.): 18.6 ± 6.18 % | Total Leukocytes ([6]; 200 mg/kg/day i.p.): 6.50 ± 0.65 ^# 10^3 Cells/µL | ALT ([7]; 100 mg/kg/day i.p.): 55.25 ± 6.26 U/L | AST ([7]; 100 mg/kg/day i.p.): 100.5 ± 5.97 U/L | Creatinine ([7]; 100 mg/kg/day i.p.): 0.34 ± 0.01 mg/dL | Urea ([7]; 100 mg/kg/day i.p.): 54.25 ± 3.82 mg/dL | ALT ([7]; 200 mg/kg/day i.p.): 47.75 ± 4.64 U/L | AST ([7]; 200 mg/kg/day i.p.): 78.75 ± 3.17 U/L | Creatinine ([7]; 200 mg/kg/day i.p.): 0.34 ± 0.01 mg/dL | Urea ([7]; 200 mg/kg/day i.p.): 41.00 ± 4.42 mg/dL | inhibition percentage (GI%) compared with perillyl alcohol [10]: higher inhibition percentage in all cell lines tested | Differential Count of Leukocytes, Eosinophil ([8]; 100 mg/kg/day i.p.): 0% | Differential Count of Leukocytes, Lymphocyte ([8]; 100 mg/kg/day i.p.): 86.0 ± 1.68 % | Differential Count of Leukocytes, Monocyte ([8]; 100 mg/kg/day i.p.): 1.5 ± 0.86% | Differential Count of Leukocytes, Neutrophil ([8]; 100 mg/kg/day i.p.): 12.5 ± 1.08 % | Total Leukocytes ([8]; 100 mg/kg/day i.p.): 3.12 ± 0.38 * 10^3 Cells/µL | Differential Count of Leukocytes, Eosinophil ([8]; 200 mg/kg/day i.p.): 0% | Differential Count of Leukocytes, Lymphocyte ([8]; 200 mg/kg/day i.p.): 89.5 ± 0.65 % | Differential Count of Leukocytes, Monocyte ([8]; 200 mg/kg/day i.p.): 1.3 ± 0.25% | Differential Count of Leukocytes, Neutrophil ([8]; 200 mg/kg/day i.p.): 9.2 ± 0.85 % | Total Leukocytes ([8]; 200 mg/kg/day i.p.): 2.62 ± 0.47 * 10^3 Cells/µL
